Where two headings read alike, the source gives them in different places.
Columns and labels:
[1] = molecular target: TNF-α converting enzyme (TACE) (Homo sapiens, UniProt P78536); experiment: Test procedure for measuring TACE inhibition (fluorescent peptidyl substrate); type: biochemical
THP-1 cells = experiment: Human monocytic THP-1 cell differentiation assay for soluble proteins (THP soluble protein assay), LPS-stimulated, TNF-α ELISA; type: cell-based; settings: for inhibition at 3 µM: Homo sapiens, THP-1; at 3 uM; percent change from vehicle positive control; read-out: TNFalpha at 3 uM) THP (percent change); for THP (% inhibition): Table 1, concentration not given
From the text: Mitogenic stimulation of THP-1 cells cause differentiation into macrophage like cells with concomitant secretion of tumor necrosis factor (TNF-a) and TNF receptor (TNF-R p75/80 and TNF-R p55/60) and Interleukin-8 (IL-8), among other proteins. In addition, non-stimulated THP-1 cells shed both the p75/80 and the p55/60 receptors over time. The release of membrane bound TNF-a and possibly TNF-R p75/80 and TNF-R p55/60, but not IL-8, is mediated by an enzyme called TNF-α converting enzyme or TACE.
THP-1 cells (from ATCC) are a human monocytic cell line which were obtained from the peripheral blood of a person with acute monocytic leukemia. They can be grown in culture and differentiated into macrophage like cells by stimulation with mitogens.
Each vial of cells are cultured for about two weeks prior to being used for an assay and then are used for only 4 to 6 weeks to screen compounds.
Cell exposure to DMSO was limited to 0.1 % final concentration. […] Compounds can be evaluated for their effect on basal (non-stimulated) shedding of the receptors by replacing the LPS with […] of THP-1 media. Plates are placed into an incubator set at 5% CO2 and at 37°C. After 4 hours of incubation, […] of tissue culture supernatant (TCS) is removed for use in an TNF-α ELISA. Following 24 hours of incubation, […] of TCS is removed and used for analysis in TNF-R p75/80, TNF-R p55/60 and IL-8 ELISAs.
In addition, at the 24 hours timepoint, and the cells for each treatment group are collected by resuspension in 500 µl/well of THP-1 media and transferred into a FACS tube. […] The samples are run on a Becton Dickinson FaxCaliber FLOW cytometry machine and the amount of dye taken up by each cell is measured in the high red wavelength (FL3). Only cells with compromised membranes (dead or dying) can take up PI. The percent of live cells is calculated by the number of cells not stained with PI, divided by the total number of cells in the sample. The viability values calculated for the drug treated groups were compared to the viability value calculated for the vehicle treated mitogen stimulated group ("vehicle positive control") to determine the "percent change from control". This "percent change from control" value is an indicator of drug toxicity.
The quantity of soluble TNF-α, TNF-R p75/80 and TNF-R p55/60 and IL-8 in the TCS of the THP-1 cell cultures are obtained with commercially available ELISAs from R&D Systems, by extrapolation from a standard curve generated with kit standards. The number of cells that either take up or exclude PI are measured by the FLOW cytometry machine and visualized by histograms using commercially available Cytologic software for each treatment group including all controls.
Biological variability in the magnitude of the response of THP-1 cell cultures requires that experiments be compared on the basis of percent change from "vehicle positive control" for each drug concentration. Percent change in each soluble protein evaluated from the "vehicle positive control" was calculated for each compound concentration with the following formula: % Change =(pg/ml (compound) - pg/ml (veh pos control))/(pg/ml (veh pos control) - pg/ml (veh neg control))x 100 [formula]
For the soluble protein (TNF-a, p75/80, p55/60, IL-8) studies under stimulated conditions, the mean pg/ml of duplicate wells were determined and the results expressed as percent change from "vehicle positive control". For the soluble protein (p75/80 and p55/60 receptors) studies under non-stimulated conditions, the mean pg/ml of duplicate wells were determined and the results expressed as percent change from […] utilizing the following formula: % Change =(pg/ml (compound neg control) - pg/ml (veh neg control))/(pg/ml (veh neg control))X 100 [formula]
IC50 values for each compound are calculated by non-linear regression analysis using customized software utilizing the JUMP statistical package.

MMP-13 = MMP-13 (Homo sapiens, UniProt P45452); experiment: MMP-13 inhibition (thiopeptide or fluorescent peptide substrate); type: biochemical; settings: for inhibition at 10 µM: % @ 10µM per footnote a
From the text: Alternatively, a fluorescent peptide substrate is used.

MMP-1 = molecular target: T1, MMP-1 (Homo sapiens, UniProt P03956); experiment: MMP-1 inhibition (thiopeptide or fluorescent peptide substrate); settings: for inhibition at 10 µM: read-out: MMP1
T1 sequence (P03956 100-469): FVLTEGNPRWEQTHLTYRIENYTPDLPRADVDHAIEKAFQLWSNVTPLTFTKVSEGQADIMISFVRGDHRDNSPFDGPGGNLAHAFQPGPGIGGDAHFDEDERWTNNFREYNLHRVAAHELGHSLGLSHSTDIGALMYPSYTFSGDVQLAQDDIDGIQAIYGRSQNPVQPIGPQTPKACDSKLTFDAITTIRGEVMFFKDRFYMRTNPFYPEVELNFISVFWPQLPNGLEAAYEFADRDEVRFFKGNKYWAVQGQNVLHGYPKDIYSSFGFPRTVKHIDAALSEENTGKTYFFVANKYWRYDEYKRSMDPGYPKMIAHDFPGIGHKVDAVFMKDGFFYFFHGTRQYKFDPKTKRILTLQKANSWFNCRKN

MMP-9 = MMP-9 (Homo sapiens, UniProt P14780); experiment: MMP-9 inhibition (thiopeptide or fluorescent peptide substrate); settings: for inhibition at 10 µM: read-out: MMP9
Method: The enzyme activity is measured by the rate of the color increase. The thiopeptide substrate is made up fresh as a 20 mM stock in 100% DMSO and the DTNB is dissolved in 100% DMSO as a 100 mM stock and stored in the dark at room temperature. Both the substrate and DTNB are diluted together to 1 mM with substrate buffer (50 mM HEPES pH 7.5, 5 mM CaCl2) before use. The stock of enzyme is diluted with buffer (50 mM HEPES, pH 7.5, 5 mM CaCl2, 0.02% Brij) to the desired final concentration.
Alternatively, a fluorescent peptide substrate is used. In this test procedure, the peptide substrate contains a fluorescent group and a quenching group. Upon cleavage of the substrate by an MMP, the fluorescence that is generated is quantitated on the fluorescence plate reader. The assay is run in HCBC assay buffer (50mM HEPES, pH 7.0, 5 mM Ca^+2, 0.02% Brij, 0.5% Cysteine), with human recombinant MMP-1, MMP-9, or MMP-13. The substrate is dissolved in methanol and stored frozen in 1 mM aliquots. For the assay, substrate and enzymes are diluted in HCBC buffer to the desired concentrations. Compounds are added to the 96 well plate containing enzyme and the reaction is started by the addition of substrate.
For either the thiopeptide or fluorescent peptide test procedures, the slope of the line is calculated and represents the reaction rate. […] The mean (x±sem) of the control rate is calculated and compared for statistical significance (p<0.05) with drug-treated rates using Dunnett's multiple comparison test.

[2] = second table, IC50 (nM) per footnote a

Chain of MMP-9 (P14780 94-707): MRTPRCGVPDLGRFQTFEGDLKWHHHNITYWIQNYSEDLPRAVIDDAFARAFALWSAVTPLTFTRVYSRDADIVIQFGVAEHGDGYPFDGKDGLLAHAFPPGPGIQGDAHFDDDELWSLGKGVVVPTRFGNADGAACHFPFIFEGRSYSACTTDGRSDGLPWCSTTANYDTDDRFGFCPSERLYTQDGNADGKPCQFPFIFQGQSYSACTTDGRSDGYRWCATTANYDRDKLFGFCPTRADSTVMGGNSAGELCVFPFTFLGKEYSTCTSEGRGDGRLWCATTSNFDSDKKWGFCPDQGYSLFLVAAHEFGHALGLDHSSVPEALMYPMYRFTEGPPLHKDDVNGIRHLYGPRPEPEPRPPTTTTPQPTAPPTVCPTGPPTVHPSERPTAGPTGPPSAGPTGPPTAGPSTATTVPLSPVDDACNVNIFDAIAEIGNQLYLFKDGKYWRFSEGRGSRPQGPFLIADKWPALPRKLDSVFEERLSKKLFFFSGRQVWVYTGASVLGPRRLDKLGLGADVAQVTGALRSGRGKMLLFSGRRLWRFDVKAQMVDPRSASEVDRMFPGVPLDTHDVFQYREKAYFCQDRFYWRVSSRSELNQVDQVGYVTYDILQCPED
Chain of TNF-α converting enzyme (TACE) (P78536 215-824): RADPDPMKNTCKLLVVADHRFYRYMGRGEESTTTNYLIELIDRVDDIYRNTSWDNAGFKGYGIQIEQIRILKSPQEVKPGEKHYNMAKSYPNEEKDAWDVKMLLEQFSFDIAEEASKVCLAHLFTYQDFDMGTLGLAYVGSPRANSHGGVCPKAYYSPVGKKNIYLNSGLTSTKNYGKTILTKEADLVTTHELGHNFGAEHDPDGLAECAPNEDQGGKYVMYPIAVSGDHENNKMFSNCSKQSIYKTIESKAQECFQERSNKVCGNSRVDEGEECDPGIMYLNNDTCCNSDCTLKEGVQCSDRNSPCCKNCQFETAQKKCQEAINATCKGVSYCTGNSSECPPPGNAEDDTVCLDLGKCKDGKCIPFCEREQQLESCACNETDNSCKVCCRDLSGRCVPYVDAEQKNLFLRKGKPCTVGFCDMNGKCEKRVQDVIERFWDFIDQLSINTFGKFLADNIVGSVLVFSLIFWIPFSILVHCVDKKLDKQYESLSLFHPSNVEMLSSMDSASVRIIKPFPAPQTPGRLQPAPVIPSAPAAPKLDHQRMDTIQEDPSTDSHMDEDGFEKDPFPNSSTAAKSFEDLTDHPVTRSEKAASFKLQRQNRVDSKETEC

Row | IC50 [1, 2] [nM] | IC50 (MMP-13; IC50, read-out: MMP13) [nM] | inhibition at 10 µM (MMP-1) [%] | inhibition at 10 µM (MMP-9) [%] | IC50 ([1]; Table 1) [nM] | IC50 (MMP-13; Table 1, read-out: MMP13 IC50) [nM] | IC50 (MMP-1) [nM] | IC50 (MMP-9) [nM] | inhibition at 10 µM (MMP-13; read-out: MMP13) [%] | Structure (SMILES) | inhibition at 3 µM (THP-1 cells) [%] | THP (% inhibition) (THP-1 cells) [%]
1 | 108 | 5060 | 27.1 | 38 | – | – | – | – | – | CC#CCOc1ccc(S(=O)(=O)C(C(=O)NO)c2ccc(Cl)cc2)cc1 (stereo not shown) [Example 82, 2-{[4-(2-butynyloxy)phenyl]sulfonyl}-2-(4-chlorophenyl)-N-hydroxyacetamide] | 14 | –
2 | – | – | – | – | 4.3 | 900 | 3000 | 1500 | – | CC#CCOc1ccc([S@+]([O-])[C@@H](CCCCCC)C(=O)NO)cc1 [Example 7, (S)-2-[(R)-[4-(2-Butynyloxy)phenylsulfinyl)]-N-hydroxyoctanamide] | – | 67
3 | 28 | – | 9.9 | 8.2 | – | – | – | – | 23.6 | CC#CCOc1ccc([S+]([O-])[C@@H](C(=O)NO)c2ccccc2)cc1 (stereo partly shown) [Example 112, R-2-{[4-(2-butynyloxy)phenyl]sulfinyl}-2-phenyl-N-hydroxyacetamide] | 15 | –
4 | 50 | – | 6.6 | 13.5 | – | – | – | – | 0.8 | CC#CCOc1ccc(SC(C(=O)NO)c2ccccc2)cc1 (stereo not shown) [Example 111, 2-{[4-(2-Butynyloxy)phenyl]sulfanyl}-2-phenyl-N-hydroxyacetamide] | -10 | –
5 | – | – | – | – | 12.4 | 150 | 3200 | 1000 | – | CC#CCOc1ccc([S@@+]([O-])[C@@H](CCCCCC)C(=O)NO)cc1 [Example 8, (S)-2-[(S)-[4-(2-Butynyloxy)phenylsulfinyl)]-N-hydroxyoctanamide] | – | 35
6 | 14.2 | 341 | 46.2 | – | – | – | – | 1360 | – | CC#CCOc1ccc(S(=O)(=O)C(CCCCCC#N)C(=O)NO)cc1 (stereo not shown) [Example 72, 2-{[4-(2-butynyloxy)phenyl]sulfonyl}-7-cyano-N-hydroxy heptanamide] | 54 | –
7 | – | – | – | – | 207 | 597 | 2200 | 207 | – | CC#CCOc1ccc(S(=O)(=O)C(C)(Cc2ccc(-c3ccccc3)cc2)C(=O)NO)cc1 (stereo not shown) [Example 2, 3-Biphenyl-4-yl-2-(4-But-2-ynyloxy-phenylsulfonyl)-N-hydroxy-2-methyl-propionamide] | – | 5
8 | 52 | 93.5 | – | – | – | – | 1500 | 336 | – | CC#CCOc1ccc([S+]([O-])C(C(=O)NO)C2CCCCC2)cc1 (stereo not shown) [Example 74, 2-{[4-(2-butynyloxy)phenyl]sulfinyl}-2-cyclohexyl-N-hydroxyacetamide] | 31 | –
9 | – | – | – | – | 105 | 2000 | 15000 | 3000 | – | CC#CCOc1ccc(SC(CCCCCC)C(=O)NO)cc1 (stereo not shown) [Example 6, 2-(4-But-2-ynyloxy-phenylsulfanyl)-octanoic acid hydroxamide] | – | 5
10 | 102 | – | 0 | 10.9 | – | – | – | – | 48.8 | CC#CCOc1ccc(SC(C(=O)NO)c2ccc(Cl)cc2)cc1 (stereo not shown) [Example 80, 2-{[4-(2-butynyloxy)phenyl]sulfanyl}-2-(4-chlorophenyl)-N-hydroxyacetamide] | 4 | –
11 | 109 | – | 0.5 | 0.5 | – | – | – | – | 47.4 | CC#CCOc1ccc(S(=O)(=O)C(C(=O)NO)c2ccc(F)cc2)cc1 (stereo not shown) [Example 97, 2-{[4-(2-butynyloxy)phenyl]sulfonyl}-2-(4-fluorophenyl)-N-hydroxyacetamide] | 10 | –
